# Target: T1, ERR1 (also known as ERR-α or ERR-1) (Homo sapiens, UniProt P11474)
# T1 sequence (P11474 193-421 limits assumed): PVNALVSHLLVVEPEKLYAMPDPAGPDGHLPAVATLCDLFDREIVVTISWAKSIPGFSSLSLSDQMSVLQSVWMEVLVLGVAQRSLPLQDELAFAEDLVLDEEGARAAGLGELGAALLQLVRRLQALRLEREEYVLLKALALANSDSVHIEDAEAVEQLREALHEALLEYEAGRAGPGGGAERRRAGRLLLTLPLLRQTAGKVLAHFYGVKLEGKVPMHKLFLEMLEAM
# Experiment: TR-FRET assay (disruption of co-activator peptide binding to ERR1 LBD)
# Format: biochemical
# Conditions: 6 nM 6His-ERR1LBD, 6 nM GST-SRC-2 peptide; average of 3 independent experiments
# Procedure, shortened: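 Homogeneous TR-FRET measuring displacement of GST-hSRC2 co-activator peptide (6 nM) from His-tagged ERR1 LBD (6 nM), detected with α-GST Eu cryptate (30 nM) and α-His-XL665 (7.5 nM). Buffer 25 mM Tris pH 8, 2.5 mM Hepes, 20 mM KCl, 1 mM DTT, 0.05 mg/mL delipidated BSA; equilibration 4-18 h at 25° C. Hyperbolic dose-response fit, mean of 3 experiments.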
row,Compound,EC50 [nM]
1,"CS(=O)(=O)CCN1CCC[C@H]1CN1C(=O)S/C(=C\c2ccc3c(cnn3Cc3ccc(Cl)cc3C(F)(F)F)c2)C1=O [Compound 159, (5Z)-5-({1-[4-Chloro-2-(trifluoromethyl)benzyl]-1H-indazol-5-yl}methylidene)-3-({(2S)-1-[2-(methylsulfonyl)ethyl]pyrrolidin-2-yl}methyl)-1,3-thiazolidine-2,4-dione]",87
2,"CC(C)C[C@@H](N)CN1C(=O)S/C(=C\c2ccc3c(cnn3Cc3ccc(Cl)cc3C(F)(F)F)c2)C1=O [Compound 54, (5Z)-3-[(2R)-2-Amino-4-methylpentyl]-5-({1-[4-chloro-2-(trifluoromethyl)benzyl]-1H-indazol-5-yl}methylidene)-1,3-thiazolidine-2,4-dione]",37
3,"O=C1S/C(=C\c2ccc3c(cnn3Cc3ccc(Cl)cc3C(F)(F)F)c2)C(=O)N1CCN1C[C@@H]2C[C@H]1CN2 [Compound 78, (5Z)-5-({1-[4-Chloro-2-(trifluoromethyl)benzyl]-1H-indazol-5-yl}methylidene)-3-[2-(1S,4S)-(2,5-diazabicyclo[2.2.1]hept-2-yl)ethyl]-1,3-thiazolidine-2,4-dione]",41
4,"O=C1S/C(=C\c2ccc3c(cnn3Cc3ccc(Cl)cc3C(F)(F)F)c2)C(=O)N1C1CN2CCC1CC2 (stereo not shown) [Compound 112, (5Z)-3-(1-Azabicyclo[2.2.2]oct-3-yl)-5-({1-[4-chloro-2-(trifluoromethyl)benzyl]-1H-indazol-5-yl}methylidene)-1,3-thiazolidine-2,4-dione]",22
5,"CN1CCC(CN2C(=O)S/C(=C\c3ccc4c(cnn4Cc4ccc(Cl)cc4C(F)(F)F)c3)C2=O)CC1 [Compound 134, (5Z)-5-({1-[4-Chloro-2-(trifluoromethyl)benzyl]-1H-indazol-5-yl}methylidene)-3-[(1-methylpiperidin-4-yl)methyl]-1,3-thiazolidine-2,4-dione]",45
6,"COC(=O)C(C1CCN(C(=O)OC(C)(C)C)CC1)N1C(=O)S/C(=C\c2ccc3c(cnn3Cc3ccc(Cl)cc3C(F)(F)F)c2)C1=O (stereo not shown) [Compound 215, tert-Butyl 4-{1-[(5Z)-5-({1-[4-chloro-2-(trifluoromethyl)benzyl]-1H-indazol-5-yl}methylidene)-2,4-dioxo-1,3-thiazolidin-3-yl]-2-methoxy-2-oxoethyl}piperidine-1-carboxylate]",61
7,"O=C(O)[C@@H](CO)N1C(=O)S/C(=C\c2ccc3c(cnn3Cc3ccc(Cl)cc3C(F)(F)F)c2)C1=O [Compound 222, (2R)-2-[(5Z)-5-({1-[4-Chloro-2-(trifluoromethyl)benzyl]-1H-indazol-5-yl}methylidene)-2,4-dioxo-1,3-thiazolidin-3-yl]-3-hydroxypropanoic acid]",58
8,"O=C(CN1C(=O)S/C(=C\c2ccc3c(cnn3Cc3ccc(Cl)cc3C(F)(F)F)c2)C1=O)N1CCN[C@@H](CO)C1 [Compound 57, (5Z)-5-({1-[4-Chloro-2-(trifluoromethyl)benzyl]-1H-indazol-5-yl}methylidene)-3-{2-[(3R)-3-(hydroxymethyl)piperazin-1-yl]-2-oxoethyl}-1,3-thiazolidine-2,4-dione]",59
9,"CC(C)N1CC[C@@H](N2C(=O)S/C(=C\c3ccc4c(cnn4Cc4ccc(C(F)(F)F)cc4C(F)(F)F)c3)C2=O)[C@H](F)C1 (relative stereo) [Compound 331, (5Z)-5-({1-[2,4-Bis(trifluoromethyl)benzyl]-1H-indazol-5-yl}methylidene)-3-[trans-3-fluoro-1-(1-methylethyl)piperidin-4-yl]-1,3-thiazolidine-2,4-dione]",238
10,"NC(=O)c1nn(Cc2ccc(Cl)cc2C(F)(F)F)c2ccc(/C=C3\SC(=O)N(CC(=O)O)C3=O)cc12 [Compound 417, [(5Z)-5-({3-Carbamoyl-1-[4-chloro-2-(trifluoromethyl)benzyl]-1H-indazol-5-yl}methylidene)-2,4-dioxo-1,3-thiazolidin-3-yl]acetic acid]",50
11,"Cc1noc(C)c1S(=O)(=O)NCCN1C(=O)S/C(=C\c2ccc3c(cnn3Cc3ccc(Cl)cc3C(F)(F)F)c2)C1=O [Compound 419, N-{2-[(5Z)-5-({1-[4-Chloro-2-(trifluoromethyl)benzyl]-1H-indazol-5-yl}methylidene)-2,4-dioxo-1,3-thiazolidin-3-yl]ethyl}-3,5-dimethylisoxazole-4-sulfonamide]",115
12,"NC1(CN2C(=O)S/C(=C\c3ccc4c(cnn4Cc4ccc(Cl)cc4C(F)(F)F)c3)C2=O)CC1 [Compound 194, (5Z)-3-[(1-Aminocyclopropyl)methyl]-5-({1-[4-chloro-2-(trifluoromethyl)benzyl]-1H-indazol-5-yl}methylidene)-1,3-thiazolidine-2,4-dione]",34
13,"O=C1S/C(=C\c2ccc3c(cnn3Cc3ccc(Cl)cc3C(F)(F)F)c2)C(=O)N1CCNC(=O)C(F)(F)F [Compound 390, N-{2-[(5Z)-5-({1-[4-Chloro-2-(trifluoromethyl)benzyl]-1H-indazol-5-yl}methylidene)-2,4-dioxo-1,3-thiazolidin-3-yl]ethyl}-2,2,2-trifluoroacetamide]",64
14,"O=C(O)CN1C(=O)S/C(=C\c2ccc3c(cnn3[C@H]3CCc4cc(Cl)ccc43)c2)C1=O [Compound 173, [(5Z)-5-({1-[(1S)-5-Chloro-2,3-dihydro-1H-inden-1-yl]-1H-indazol-5-yl}methylidene)-2,4-dioxo-1,3-thiazolidin-3-yl]acetic acid]",70
15,"O=C1S/C(=C\c2ccc3c(cnn3Cc3ccc(Cl)cc3C(F)(F)F)c2)C(=O)N1CC1(F)CCN(CCO)CC1 [Compound 305, (5Z)-5-({1-[4-Chloro-2-(trifluoromethyl)benzyl]-1H-indazol-5-yl}methylidene)-3-{[4-fluoro-1-(2-hydroxyethyl)piperidin-4-yl]methyl}-1,3-thiazolidine-2,4-dione]",3
16,"NC1(CCN2C(=O)S/C(=C\c3ccc4c(cnn4Cc4ccc(Cl)cc4C(F)(F)F)c3)C2=O)CCOCC1 [Compound 312, (5Z)-3-[2-(4-Aminotetrahydro-2H-pyran-4-yl)ethyl]-5-({1-[4-chloro-2-(trifluoromethyl)benzyl]-1H-indazol-5-yl}methylidene)-1,3-thiazolidine-2,4-dione]",65
17,"NC(=O)CN1CCC[C@H]1CN1C(=O)S/C(=C\c2ccc3c(cnn3Cc3ccc(Cl)cc3C(F)(F)F)c2)C1=O [Compound 297, 2-[(2S)-2-{[(5Z)-5-({1-[4-Chloro-2-(trifluoromethyl)benzyl]-1H-indazol-5-yl}methylidene)-2,4-dioxo-1,3-thiazolidin-3-yl]methyl}pyrrolidin-1-yl]acetamide]",76
18,"CS(=O)(=O)NN1C(=O)S/C(=C\c2ccc3c(c2)c(Cl)nn3Cc2ccc(Cl)cc2C(F)(F)F)C1=O [Compound 366, N-[(5Z)-5-({3-Chloro-1-[4-chloro-2-(trifluoromethyl)benzyl]-1H-indazol-5-yl}methylidene)-2,4-dioxo-1,3-thiazolidin-3-yl]methanesulfonamide]",6
19,"Cc1nn(Cc2ccc(Cl)cc2C(F)(F)F)c2ccc(/C=C3\SC(=O)N(CC(=O)NS(=O)(=O)N(C)C)C3=O)cc12 [Compound 39, 2-[(5Z)-5-({1-[4-Chloro-2-(trifluoromethyl)benzyl]-3-methyl-1H-indazol-5-yl}methylidene)-2,4-dioxo-1,3-thiazolidin-3-yl]-N-(dimethylsulfamoyl)acetamide]",43
20,"CC(C)NCCN1C(=O)S/C(=C\c2ccc3c(cnn3Cc3ccc(Cl)cc3C(F)(F)F)c2)C1=O [Compound 48, (5Z)-5-({1-[4-Chloro-2-(trifluoromethyl)benzyl]-1H-indazol-5-yl}methylidene)-3-{2-[(1-methylethyl)amino]ethyl}-1,3-thiazolidine-2,4-dione]",19
21,"CN(C)CCCN1C(=O)S/C(=C\c2ccc3c(ccn3Cc3ccc(F)cc3C(F)(F)F)c2)C1=O [Compound 252, (5Z)-3-[3-(Dimethylamino)propyl]-5-[(1-{[4-fluoro-2-(trifluoromethyl)phenyl]methyl}-1H-indol-5-yl)methylidene]-1,3-thiazolidine-2,4-dione]",100
22,"CS(=O)(=O)NN1C(=O)S/C(=C\c2ccc3c(cnn3Cc3ccc(Br)cc3C(F)(F)F)c2)C1=O [Compound 364, N-[(5Z)-5-({1-[4-Bromo-2-(trifluoromethyl)benzyl]-1H-indazol-5-yl}methylidene)-2,4-dioxo-1,3-thiazolidin-3-yl]methanesulfonamide]",4
23,O=C1S/C(=C\c2ccc3c(cnn3Cc3ccc(Cl)cc3C(F)(F)F)c2)C(=O)N1CC(=O)N1CCNS1(=O)=O [Compound 415],12
24,"COCCN1CCC(N2C(=O)S/C(=C\c3ccc4c(cnn4Cc4ccc(Cl)cc4C(F)(F)F)c3)C2=O)CC1 [Compound 147, (5Z)-5-({1-[4-Chloro-2-(trifluoromethyl)benzyl]-1H-indazol-5-yl}methylidene)-3-[1-(2-methoxyethyl)piperidin-4-yl]-1,3-thiazolidine-2,4-dione]",36
25,"CCOc1nn(Cc2ccc(Cl)cc2C(F)(F)F)c2ccc(/C=C3\SC(=O)N(CCN4CCCC4)C3=O)cc12 [Compound 33, (5Z)-5-({1-[4-Chloro-2-(trifluoromethyl)benzyl]-3-ethoxy-1H-indazol-5-yl}methylidene)-3-(2-pyrrolidin-1-ylethyl)-1,3-thiazolidine-2,4-dione]",185

# Source: US8796256B2 (Janssen Pharmaceutica NV, priority 2010, dated 2014)
